Legend:
[1] = biological target: T1, human Serotonin 5-HT1B receptor (Homo sapiens, UniProt P28222); assay: GTPγS functional assay; format: biochemical; settings: read-out: Functional activity (agonist)
T1 construct: purchased Euroscreen
Experimental: (§1) Functional profiling of agonist and antagonist activities of 8′-OH DHE on human Adrenergic α1D, Dopamine D2L, and Serotonin 5-HT1B, 5-HT1D, 5-HT1F, 5-HT3, 5-HT4e and 5-HT5A receptors (compared against the parent (DHE) molecule) was carried out as follows.
(§2) The SPA 35S-GTPγS tests were conducted with Euroscreen membrane preparations […]. The HTRF assays were conducted with recombinant cell lines. The receptor accession numbers, cellular background and reference compounds are as reported below in Table 10.
(§3) (3) 8′-OH DHE was tested for agonist and antagonist activity at the human Serotonin 5-HT1B and Serotonin 5-HT1D receptors using GTPγS assay (in triplicate) at the following nanomolar concentrations: […]
(§4) The assay procedure was carried out as follows. […] The plates were then centrifuged for 10 minutes at 2,000 rpm and counted for 1 min/well with a Perkin Elmer TopCount reader.
(§5) Agonist activity of the test compounds was expressed as a percentage of the activity of the reference agonist at its EC100 concentration. Antagonist activity of the test compounds was expressed as a percentage of the inhibition of the reference agonist activity at its EC80 concentration. Dose-response data from the test compounds were analyzed with XLfit (IDBS) software using nonlinear regression applied to a sigmoidal dose-response model and the following equation: […]

[2] = biological target: T2, human Serotonin 5-HT1D receptor (Homo sapiens, UniProt P28221); assay: GTPγS functional assay; format: biochemical; settings: read-out: Functional activity (agonist)
T2 construct: purchased Euroscreen
Experimental: as §1, §2, §3, §4, §5

[3] = tested on: NMDA (NR1/NR2A/NR2B/NR2C/NR2D); assay: NMDA receptor Fluo-8 calcium FLIPR assay (agonist/antagonist); format: cell-based, human; settings: NMDA receptors
Experimental: Additional receptor agonist/agonist activity assessments were performed using the 8′-OH DHE test compound. Table 12 contains a summary of the cell lines (CHO-K1/HEK293 transfected with relevant human receptor) and the assays performed to detect any agonist or antagonist activity.
Studies for NMDA receptors (the NR1, NR2A, NR2B, NR2C and NR2D receptors) were conducted to monitor receptor activity of the test 8′-OH DHE compound using the Fluo-8 calcium kit and a Fluorescence Imaging Plate Reader (FLIPR^TETRA™) instrument. The following channels were evaluated: Cloned NMDA receptor (NR1/NR2A) channel (encoded by the GRIN1 and GRIN2A genes, co-expressed in HEK293 cells); Cloned NMDA receptor (NR1/NR2B) channel (encoded by the GRIN1 and GRIN2B genes, co-expressed in HEK293 cells); Cloned NMDA receptor (NR1/NR2C) channel (encoded by the GRIN1 and GRIN2C genes, co-expressed in HEK293 cells); and Cloned NMDA receptor (NR1/NR2D) channel (encoded by the GRIN1 and GRIN2D genes, transiently co-expressed in HEK293 cells).
For the agonist assessment, the effect of the test 8′-OH DHE compound was evaluated in the absence of the positive control agonist. The signal, elicited in the presence of the agonist (100 μM Glutamic acid+20 μM Glycine), was set to 100% activation and the signal in the presence of the vehicle control (Mg^2+-free HB-PS) was set to 0% activation. […]

[4] = tested on: Purinergic (P2X1/P2X2/P2X3/P2X4/P2X7); assay: Purinergic receptor QPatch patch clamp (agonist/antagonist); format: cell-based, human; settings: P2X receptors, 30 and 100 μM
Experimental: Purinergic receptor studies were conducted to monitor activity of 8′-OH DHE against the P2X1, P2X2, P2X3, P2X4 and P2X7 receptors. Human recombinant purinergic receptor-expressing HEK293 cells were used, and receptor activity was evaluated at RT using QPatch HT® (Sophion Bioscience A/S, Denmark) automatic parallel patch clamp system. The test 8′-OH DHE compound was evaluated in both agonist and antagonist modes at 30 and 100 μM. Each concentration was tested in triplicate.

T2 sequence (P28221 whole entry): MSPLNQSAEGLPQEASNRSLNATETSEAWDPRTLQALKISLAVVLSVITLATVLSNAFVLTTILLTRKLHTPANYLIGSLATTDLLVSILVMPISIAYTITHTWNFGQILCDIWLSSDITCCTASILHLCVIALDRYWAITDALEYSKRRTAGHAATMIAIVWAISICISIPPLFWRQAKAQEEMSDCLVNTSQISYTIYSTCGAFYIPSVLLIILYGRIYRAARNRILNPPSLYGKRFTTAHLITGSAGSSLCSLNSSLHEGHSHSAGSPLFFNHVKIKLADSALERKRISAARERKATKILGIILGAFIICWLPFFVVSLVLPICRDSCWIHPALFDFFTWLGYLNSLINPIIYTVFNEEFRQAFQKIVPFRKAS
T1 sequence (P28222 whole entry): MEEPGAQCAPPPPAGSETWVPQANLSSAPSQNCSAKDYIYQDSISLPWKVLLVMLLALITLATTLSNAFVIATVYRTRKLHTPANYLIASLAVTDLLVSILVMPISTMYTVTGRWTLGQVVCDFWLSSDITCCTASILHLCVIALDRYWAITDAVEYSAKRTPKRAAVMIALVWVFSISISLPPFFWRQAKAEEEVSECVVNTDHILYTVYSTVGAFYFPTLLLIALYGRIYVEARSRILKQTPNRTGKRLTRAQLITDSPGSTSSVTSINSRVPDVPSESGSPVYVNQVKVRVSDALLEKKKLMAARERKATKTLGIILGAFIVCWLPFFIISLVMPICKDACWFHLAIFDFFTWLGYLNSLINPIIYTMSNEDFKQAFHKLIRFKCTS

CN1C[C@H](C(=O)N[C@]2(C)O[C@@]3(O)[C@@H]4CCC(O)N4C(=O)[C@H](Cc4ccccc4)N3C2=O)C[C@@H]2c3cccc4[nH]cc(c34)C[C@H]21 (stereo partly shown) [8′-OH DHE, 8′-Hydroxy-Dihydroergotamine]
EC50 [1]: 0.73 nM
EC50 [2]: 0.49 nM
Activity (Agonism: EC50; Antagonism: IC50) [3]: Inactive
Activity (Agonism: EC50; Antagonism: IC50) [4]: Inactive

Source: patent publication US20150306096A1, “8'-HYDROXY-DIHYDROERGOTAMINE COMPOUNDS AND COMPOSITIONS” (MAP Pharmaceuticals, Inc., priority 2012, published 2015)
